From article PMC9611727, “Optimization of a Novel Mandelamide-Derived Pyrrolopyrimidine Series of PERK Inhibitors” (Pharmaceutics, 2022) come the findings set out here.

Converted amounts (≈) assume the structure as drawn. Read-outs that look alike come from different tables or passages of the source. Bounds are passed on as bounds.

For one data set, the system named is p-eIF2α. The experiment in a line: Cellular PERK inhibition: p-eIF2a TR-FRET in tunicamycin-treated HEK293-EGFP-eIF2a cells. The format is cell-based. Here is the method: Methods used to evaluate in vitro cellular PERK inhibition are described and published elsewhere. In brief, stableHEK293 cells were created using lentiviral particles harboring a GFP-eIF2a expression vector. Transfectants were selected by puromycin and enriched using fluorescent cell sorting based on GFP expression. HEK293-EGFP-eIF2a cells were plated at 5000 cells/well in 384-well assay plates and incubated overnight. The following day, pyrrolopyrimidine analogs were added to wells using an Echo acoustic dispenser and incubated for 30 min. ER stress was induced by the addition of tunicamycin to the wells at […] for 2 h. Cells were lysed and peIF2a was evaluated using a TR-FRET system, as described above.
The PERK activity of analog I was evaluated using cell-free biochemical assays. In these assays, PERK phosphorylation of eIF2a was assessed using a FRET-based labelled protein assay. Compounds were then evaluated for cellular activity by quantifying inhibition of eIF2a phosphorylation in HEK293 cells treated with the ER inducer tunicamycin [7].

Data set [1] in a line: Kinetic aqueous solubility in PBS pH 7.4. The data set is classed as physicochemical. The conditions noted are these: phosphate buffered saline (PBS), 25 °C, aqueous buffer, kinetic from dmso stock. The procedure:
These promising compounds were evaluated in in vitro ADME assays (aqueous solubility, Caco-2 permeability, plasma protein binding, and hepatocyte stability) to determine their drug-like properties (Table 4).
Verapamil hydrochloride and tamoxifen were obtained from Sigma-Aldrich. All solvents were obtained from commercial sources and used without further purification. Hydrophilic PVDF 96-well filter plates ([…]), 2 mL 96-well assay block, and 96-well UV plates were purchased from Fisher Scientific.Test compound was prepared as a 10 mM stock solution in DMSO. Aqueous suspensions of test compound at 100 µM were prepared in assay buffers. The composition of phosphate buffered saline (PBS) is 0.1 M sodium phosphate, and 0.15 M sodium chloride, adjusted to pH 7.4. The suspensions were agitated at 200 rpm for 1 hour at 25 °C. The suspensions were transferred to a 0.45 µm hydrophilic PVDF 96-well filter plate mounted on a fresh 2 mL 96-well plate and were filtered by centrifugation at 3,000 rpm for 1 min. 150 µL of filtrates were transferred to 96-well UV plate for absorbance measurement. In order to determine the optimal wavelength for detection (λmax), the absorbance spectrum of the DMSO stock solution for each compound was recorded over a broad range of wavelengths (260–450 nm) using a UV/VIS plate reader (Molecular Devices Spectramax i3). To prepare calibration curves, a 1:1 serial dilution was performed on each compound starting at 100 µM to generate calibration solutions with concentrations ranging from […] to 100 µM. The UV absorbance of calibrants was measured at λmax for each compound. Concentration of each compound in the assay solution was calculated using the corresponding calibration curve. All assay measurements were performed in duplicate. […]

The nature of data set [2]: Plasma protein binding (RED dialysis), human. The data set is classed as in vitro ADME. The conditions noted are these: both sexes, pooled human plasma, pH 7.4. The text has this: (§1) Verapamil hydrochloride and tamoxifen were obtained from Sigma-Aldrich. […]
(§2) Pooled mixed gender human donor plasma, Sprague Dawley male rat plasma, CD-1 (ICR) male mouse plasma and male beagle dog plasma were obtained from Bioreclamation Inc. (Westbury, NY). Reusable Teflon base plate, RED Device inserts, and BupH Phosphate Buffered Saline packs (0.1 M sodium phosphate and 0.15 M sodium chloride when dissolved in 0.5 L water) were obtained from Thermo Scientific (Waltham, MA). Propranolol was obtained from Sigma-Aldrich (St. Louis, MO). All solvents were obtained from commercial sources and used without further purification.
(§3) Frozen plasma was thawed and the pH of plasma and BupH phosphate buffered saline was adjusted to 7.4 prior to dialysis. Into each well of a reusable Teflon 48-well base plate a RED insert was placed open end up. Ten microliters (10 µL) of the test compound (0.1 mM in acetonitrile/water, 1:1 v/v) was added to 990 µL of plasma to achieve 1 µM final concentration. The spiked plasma (200 µL) was added to the sample chamber, which is indicated by the red retainer ring (donor side). To the other side (receiver side), 350 µL of BupH phosphate buffered saline (pH 7.4) was added. A buffer-to-buffer assay was also performed to measure equilibrium across the membrane in the absence of plasma protein.
(§4) Propranolol was used as a positive control. All samples were prepared in triplicate. The RED device base plate was then sealed and placed in a shaking incubator set to maintain 37°C and 200 rpm for four hours.
(§5) After incubation, 100 µL of each sample was combined with an equal volume of either plasma or buffer, to create a similar matrix for all samples. Blank buffer was added to plasma samples, and vice versa. Samples from the incubation, along with the original compound-spiked plasma samples, were prepared for analysis in the same manner. Protein precipitation by addition of two parts of ice-cold acetonitrile to one part of reaction volume was carried out. To ensure complete protein precipitation samples were sealed and placed overnight at 4°C. The next morning samples were centrifuged at 3,600 rpm for 15 minutes. The supernatants (70 µL) were supplemented with an equal volume of internal standard solution (0.15 µM verapamil in water) and subjected to LC-MS/MS analysis.

Data set [3] is described as follows: Plasma protein binding (RED dialysis), rat. The data set is classed as in vitro ADME. The conditions noted are these: male, Sprague Dawley, pH 7.4.
Excerpt: as §1, §2, §3, §4, §5

The nature of data set [4]: Metabolic clearance in hepatocytes, rat. The format is in vitro ADME. The conditions noted are these: male, Sprague Dawley, cryopreserved rat hepatocytes, read-out: Hepatocyte Clearance (t1/2 min) Rat. The procedure: Metabolic Clearance in Hepatocytes
Testosterone was obtained from Cerilliant (Round Rock, TX). 7-Hydroxycoumarin was obtained from Sigma-Aldrich (St.
Louis, MO). Ten-donor male pooled cryopreserved human hepatocytes, cryopreserved male Sprague Dawley rat hepatocytes, cryopreserved male ICR/CD-1 mouse hepatocytes, cryopreserved male beagle dog hepatocytes, In VitroGro HI Medium (Incubation), and InVitroGro HT Medium (Thawing) were obtained from Bioreclamation IVT (Baltimore, MD). All solvents were obtained from commercial sources and used without further purification.Test compound was prepared as a 1 mM stock solution in DMSO. A 2 µM solution of test compound and testosterone was prepared (7 - hydroxycoumarin was prepared at 20 µM) in In VitroGro HI Medium (Incubation). These solutions were placed in a sterile incubator set to maintain 37°C, 5% CO2, and 98% humidity to pre-warm. Cryopreserved hepatocytes were prepared at a concentration of 2 x 10^6 living cells/mL in incubation media and placed in the incubator to pre-warn. The compound solutions and hepatocyte mixtures were then combined at a ratio of 1:1 (v:v). The final volume of the reaction mixture was 750 µL, containing 1 µM test compound and 1 x 10^6 cells/mL. The reaction mixture was placed in the incubator on a plate shaker. After 0, 15, 30, 60, 90, and 120 minutes of incubation, 100 µL of reaction mixtures were removed from the incubation plate and mixed with 150 µL of ice-cold acetonitrile in a designated well of a 96-well crash plate. The 96-well crash plate was placed on ice for 15 min, and samples were centrifuged (3,600 rpm, 10 min, 4 °C) to precipitate protein.
The supernatants were diluted 1:1 (v/v) with water containing tolbutamide, (internal standard for positive and negative modes, respectively) in a 96-well shallow injection plate. This plate was sealed for LC-MS analysis. All measurements

[5] abbreviates: Homo sapiens, HEK293 cells, tunicamycin-induced ER stress, read-out: p-eIF2α IC50.

In the case of `Cc1cc(NC(=O)[C@H](O)c2cccc(F)c2)ccc1-c1cn(C)c2ncnc(N)c12` [Compound 11, (R)-N-(4-(4-amino-7-methyl-7H-pyrrolo[2,3-d]pyrimidin-5-yl)-3-methylphenyl)-2-(3-fluorophenyl)-2-hydroxy acetamide], in the data set on p-eIF2α (setting [5]), the IC50 came to 8.4 nM.
Turning to `Cc1nc(N)c2c(-c3ccc(NC(=O)[C@H](O)c4cccc(F)c4)cc3C)cn(C)c2n1` [Compound 24], the IC50 in the data set with p-eIF2α (setting [5]) was 51 nM. The same compound showed a solubility (kinetic) at 1 h in data set [1] of 76 µM (≈ 31.9 µg/mL). Also, the fraction unbound at 4 h, 1 µM in data set [2] is 0.008; in data set [3], 0.009. For the same compound, the half-life at 1 µM in data set [4] turned out to be 23 min.
On to `Cc1nc(N)c2c(-c3ccc(NC(=O)[C@H](O)c4cccc(C(F)(F)F)c4)cc3C)cn(C)c2n1` [Compound 26], for which, in the data set on p-eIF2α (setting [5]), the IC50 stood at 15 nM. The compound also came in with a solubility (kinetic) at 1 h in data set [1] of 19 µM (≈ 8.92 µg/mL). Besides, the free fraction (fraction unbound) at 4 h, 1 µM in data set [2] and in data set [3] was 0.002 throughout. In addition, the half-life at 1 µM in data set [4] worked out at 166 min.
As for `Cc1nc(N)c2c(-c3ccc(NC(=O)[C@H](O)c4cccc(Cl)c4)cc3C)cn(C)c2n1` [Compound 28], the IC50 with p-eIF2α (setting [5]) stood at 16 nM. For the same compound, in data set [1], the solubility (kinetic) at 1 h was 35 µM (≈ 15.3 µg/mL). Moreover, the results for the fraction unbound at 4 h, 1 µM in data set [2] and in data set [3] were 0.002 and 0.003, respectively. In addition, the half-life at 1 µM in data set [4] came to 27 min.
On the same counts, the results for `Cc1nc(N)c2c(-c3ccc(NC(=O)[C@H](O)c4cc(F)cc(F)c4)cc3C)cn(C)c2n1` [Compound 38] are 14 nM, 19 µM (≈ 8.31 µg/mL), 0.01, 0.009 and 121 min.
As for `Cc1nc(N)c2c(-c3ccc(NC(=O)[C@H](O)c4cc(F)cc(C(F)(F)F)c4)cc3C)cn(C)c2n1` [Compound 39], in the data set on p-eIF2α (setting [5]), the IC50 amounted to 11 nM. In data set [1], this compound came in with a solubility (kinetic) at 1 h of 10 µM (≈ 4.87 µg/mL). Moreover, the unbound share (fraction unbound) at 4 h, 1 µM in data set [2] and in data set [3] was 0.001 in each case. The half-life at 1 µM in data set [4] stood at 252 min.
Regarding `Cc1cc(F)cc([C@@H](O)C(=O)Nc2ccc(-c3cn(C)c4nc(C)nc(N)c34)c(C)c2)c1` [Compound 41], the IC50 in the data set with p-eIF2α (setting [5]) came to 10 nM. In data set [1], the kinetic solubility at 1 h was 24 µM (≈ 10.4 µg/mL). Moreover, the fraction unbound at 4 h, 1 µM in data set [2] was 0.004; in data set [3], 0.005. For the same compound, the half-life at 1 µM in data set [4] worked out at 16 min.
As to `Cc1nc(N)c2c(-c3ccc(NC(=O)[C@H](O)c4cccc(Cl)c4)cc3F)cn(C)c2n1` [Compound 48], the IC50 with p-eIF2α (setting [5]) was 10 nM; with p-eIF2α (bound stated, read-out: cellular potency), below 15 nM. The kinetic solubility at 1 h in data set [1] was 14 µM (≈ 6.16 µg/mL). Further, the fraction unbound at 4 h, 1 µM was 0.001 in data set [2] and 0.004 in data set [3]. Moreover, the half-life at 1 µM in data set [4] amounted to 25 min.
For `Cc1nc(N)c2c(-c3ccc(NC(=O)[C@H](O)c4cccc(F)c4)c(F)c3C)cn(C)c2n1` [Compound 65], the IC50 in the data set on p-eIF2α (setting [5]) is 30 nM. The solubility (kinetic) at 1 h in data set [1] is 58 µM (≈ 25.4 µg/mL). Also, the fraction unbound at 4 h, 1 µM in data set [2] was 0.004; in data set [3] it was 0.011. The half-life at 1 µM in data set [4] is 22 min.
On the same counts, the results for `Cc1nc(N)c2c(-c3cc(F)c(NC(=O)[C@H](O)c4cccc(F)c4)cc3C)cn(C)c2n1` [Compound 66] are 42 nM, 61 µM (≈ 26.7 µg/mL), 0.007, 0.014 and 13 min.
On the same counts, the results for `Cc1nc(N)c2c(-c3ccc(NC(=O)[C@H](O)c4cccc(F)c4)c(F)c3F)cn(C)c2n1` [Compound 70, (R)-N-(4-(4-amino-2,7-dimethyl-7H-pyrrolo[2,3-d]pyrimidin-5-yl)-2,3-difluorophenyl)-2-(3-fluorophenyl)-2-hydroxyacetamide] are 24 nM, 66 µM (≈ 29.1 µg/mL), 0.006, 0.007 and 15 min.
